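Grown in 96-well plates, cells were treated for 48 hours with each compound at five concentrations. Insufficient inhibition: endpoint recorded as highest concentration tested. GI50: concentration for 50% inhibition of growth. TGI denotes the concentration required for complete inhibition of growth.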
Assays:
Assay in all cases: NCI tumour cell line growth inhibition, 48 h
[1] = system: CAKI-1 renal
[2] = system: RPMI-8226 leukemia
[3] = system: U251 CNS
[4] = system: SK-MEL-5 melanoma
[5] = system: IGROV1 ovarian
[6] = system: KM12 colon
[7] = system: OVCAR-8 ovarian
[8] = system: OVCAR-4 ovarian
[9] = system: T-47D breast
[10] = system: HS 578T breast

SMILES | TGI [1] [µM] | TGI [2] [µM] | TGI [3] [µM] | TGI [4] [µM] | TGI [5] [µM] | TGI [6] [µM] | TGI [7] [µM] | TGI [8] [µM] | GI50 [9] [µM] | TGI [9] [µM] | GI50 [1] [µM] | GI50 [2] [µM] | GI50 [3] [µM] | GI50 [10] [µM] | TGI [10] [µM] | GI50 [4] [µM] | GI50 [5] [µM] | GI50 [6] [µM] | GI50 [8] [µM] | GI50 [7] [µM]
COc1ccc(C2=Nc3ccccc3SC(C)C2)cc1OC (stereo unspecified) | 50.4 | 38.4 | 30.9 | 37 | 29.7 | 36.3 | 43.8 | 57.4 |  |  |  |  |  |  |  |  |  |  |  | 
CN=C1C=CC(=C(c2ccc(N(C)C)cc2)c2ccc(N(C)C)cc2)C=C1 | 2.53 | 0.255 | 0.682 | 0.364 | 6.38 | 0.673 |  | 2.7 | 0.292 | 2.1 | 0.448 | 0.0543 | 0.0582 | 0.233 | 3.02 | 0.182 | 0.42 | 0.165 | 0.378 | 
C#C[C@@]1(O)[C@@H](CO)O[C@@H](n2cc(I)c3c(N)ncnc32)[C@@H]1O |  | 5.51 | > 32 | 3.3 |  | > 100 |  | > 100 |  | 0.127 |  | 0.343 | 0.0734 | 0.785 | 7.83 | 0.209 |  | 0.0962 | 0.809 | 0.0456
Cc1cc(N(CCOS(C)(=O)=O)CCOS(C)(=O)=O)ccc1C(=O)O | > 100 | > 100 | > 100 | > 100 |  | > 100 | > 100 | > 100 | > 100 | > 100 | 43.7 | > 100 | > 100 | > 100 | > 100 | > 100 |  | > 100 | > 100 | > 100
O=C(NNc1ccc(Cl)cc1)C1CCC(CNS(=O)(=O)c2ccccc2Cl)CC1 (stereo unspecified) | 12.6 | 21.9 |  | 39.2 | > 100 | 99.4 | > 100 |  |  |  | 2.9 | 4.91 |  | 65.2 | > 100 | 18.4 | 42.5 | 4.37 |  | 21.6
CSc1nc2nc3c(nc2c(=O)n1C)C(=O)c1ccccc1C3=O | 1 | 1.02 | 0.612 | 0.0322 | 0.778 | 0.994 | 0.834 |  | 0.226 | 0.843 | 0.3 | 0.255 | 0.229 | 0.226 | 0.678 | 0.0169 | 0.271 | 0.278 |  | 0.225
N#Cc1ccccc1NC(=O)C(=O)C1NC(=S)NC1=O (stereo unspecified) | > 100 | > 100 | > 100 | > 100 | > 100 | > 100 | > 100 | > 100 |  |  |  |  |  |  |  |  |  |  |  | 
O=C(O)CCNS(=O)(=O)c1ccc2ccccc2c1 | > 100 | > 100 | > 100 | > 100 | > 100 | > 100 | > 100 | > 100 |  |  |  |  |  |  |  |  |  |  |  | 
